From paper PMC4493059, “The Crystal Structure of Thermotoga maritima Class III Ribonucleotide Reductase Lacks a Radical Cysteine Pre-Positioned in the Active Site” (PLoS ONE, 2015) come the findings set out here.

Test [1] deals with T1, tmNrdD (Thermotoga maritima, UniProt Q9WYL6).
T1 construct: gene TM_0385; recombinant in E. coli, homodimer; residues to 651, Gly621 radical site
The test can be described thus: X-ray crystallography. Type of test: binding.

Test [2] deals with anaerobic (class III) ribonucleotide reductase from Thermotoga maritima (Thermotoga maritima). Briefly: crystal structure; tmNrdD dimer in the asymmetric unit, space group P2_(1); apo forms with glycerol, MES or citrate in the active site, and complexes with dATP or dATP/CTP; resolutions from 2.4 Å to 1.92 Å.

T1 sequence (Q9WYL6 entry or part of it): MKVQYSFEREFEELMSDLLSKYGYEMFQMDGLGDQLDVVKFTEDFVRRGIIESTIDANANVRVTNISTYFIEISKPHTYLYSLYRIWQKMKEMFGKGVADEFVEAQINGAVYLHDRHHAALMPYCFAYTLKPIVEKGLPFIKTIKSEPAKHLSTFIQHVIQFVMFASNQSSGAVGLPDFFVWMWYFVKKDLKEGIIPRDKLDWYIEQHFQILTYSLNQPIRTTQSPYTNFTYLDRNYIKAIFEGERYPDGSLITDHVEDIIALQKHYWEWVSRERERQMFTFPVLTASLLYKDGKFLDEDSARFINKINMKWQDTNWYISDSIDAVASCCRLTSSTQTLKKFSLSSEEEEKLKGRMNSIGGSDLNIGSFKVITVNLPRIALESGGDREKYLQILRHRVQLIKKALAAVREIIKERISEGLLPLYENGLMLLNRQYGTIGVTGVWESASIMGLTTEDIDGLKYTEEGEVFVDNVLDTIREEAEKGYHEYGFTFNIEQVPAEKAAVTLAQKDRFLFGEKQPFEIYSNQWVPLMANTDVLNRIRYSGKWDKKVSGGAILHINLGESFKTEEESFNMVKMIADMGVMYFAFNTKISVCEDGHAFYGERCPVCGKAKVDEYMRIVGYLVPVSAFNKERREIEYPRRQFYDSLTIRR

For the molecule `Nc1ccn([C@@H]2O[C@H](COP(=O)(O)OP(=O)(O)OP(=O)(O)O)[C@@H](O)[C@H]2O)c(=O)n1` [CTP], the X-ray crystallography result in test [1] (active site, with effector dATP, soak or co-crystal 2 mM CTP, also reduced to dCTP in assay with MBP-tmNrdG and T. maritima cell extract) was “represents the first structure of an anaerobic, class III RNR with a substrate”. As for `Nc1ncnc2c1ncn2[C@H]1C[C@H](O)[C@@H](COP(=O)(O)OP(=O)(O)OP(=O)(O)O)O1` [dATP], in test [1] (allosteric specificity effector site at dimer interface, Mg2+ (Mn2+ substituted), dATP alone 4COL, also with CTP 4COJ, soak or co-crystal 0.5 mM dATP), the X-ray crystallography result is “The effector dATP binds at the dimer interface, along the length of helices αA and αB”. For orientation: stoichiometry N means the number of molecules, sites or subunits per partner or assembly. As to “anaerobic (class III) ribonucleotide reductase from Thermotoga maritima (enzyme)”, the stoichiometry N in test [2] worked out at 2.
